Consider 13 compounds from patent US9045524B2, “Selective caspase inhibitors and uses thereof” (NOVAGENESIS FOUNDATION, priority 2009, dated 2015).

The structures appear in SMILES notation. Structures can show the parent of a compound that is named as a salt. Where two headings read alike, the source gives them in different places. Square brackets hold non-standard residues; d marks the D form. Peptide text beside a SMILES is read from it. * marks the point of attachment. Phg = N[C@H](C(=O)O)c1ccccc1; Cbz = O=C(OCc1ccccc1)*; OtBu = CC(C)(C)O*

One experiment addresses Caspase-7 (Homo sapiens (Human), UniProt P55210). Nature of the experiment: Caspase-7 Inhibitor Drug Screening Kit, fluorometric (AFC liberation). The experiment is classed as biochemical. The settings on record: 30-minute incubation at 37° C.; approximations of the average values; read-out: Caspase enzymatic activity, IC50 (uM) Caspase 7.
In the next experiment the target is Caspase-5 (Homo sapiens (Human), UniProt P51878). Description: Caspase-5 Inhibitor Drug Screening Kit, fluorometric (AFC liberation). The experiment is classed as biochemical. The settings on record: for IC50: 30-minute incubation at 37° C., approximations of the average values, read-out: Caspase enzymatic activity, IC50 (uM) Caspase 5; for inhibitory activity for caspase-5: at the tested dose-range (1 to 3333 nM).

A further experiment has as its target Caspase-1 (Homo sapiens (Human), UniProt P29466). Description: Caspase-1 Inhibitor Drug Screening Kit, fluorometric (AFC liberation). Format: biochemical. The following applies: for IC50: 30-minute incubation at 37° C., approximations of the average values, read-out: Caspase enzymatic activity, IC50 (uM) Caspase 1; for inhibitory activity for caspase-1: at the tested dose-range (1 to 3333 nM).

The subject of another experiment is Glo3/7. Nature of the experiment: Glo3/7 assay. The experiment is classed as biochemical.
The target of a further experiment is Caspase-3 (Homo sapiens (Human), UniProt P42574). Nature of the experiment: Caspase-3 Inhibitor Drug Screening Kit, fluorometric (AFC liberation). Format: biochemical.
A further experiment addresses Caspase-9 (Homo sapiens (Human), UniProt P55211). Description: Caspase-9 Inhibitor Drug Screening Kit, fluorometric (AFC liberation). The following applies: for IC50: 30-minute incubation at 37° C., approximations of the average values, read-out: Caspase enzymatic activity, IC50 (uM) Caspase 9; for inhibitory activity for caspase-9: at the tested dose-range (1 to 3333 nM). The experiment is classed as biochemical.

For experiment [1], the system named is proteolytic cleavage of PARP (poly ADP-ribose polymerase) in Hela cells. Description: Inhibition of staurosporine-induced PARP cleavage in live Hela cells. The experiment is classed as cell-based. The settings on record: for inhibition at 50 µM: Homo sapiens, HeLa; for effectivity in inhibiting PARP cleavage: staurosporine. The protocol: To test the efficacy of caspase-3 inhibitors at the cellular level, the ability of selected compounds to inhibit the proteolytic cleavage of PARP (poly ADP-ribose polymerase) was evaluated in live Hela cells.
Briefly, in this assay Hela cells are seeded in 96 well plates and incubated for 4 hours with staurosporine, a well characterized inducer of apoptosis, alone or together with different concentrations of compound (50, 25, 10 and 3 uM). After formaldehyde-based fixation, the cells are stained with a fluorescein-labeled anti-cleaved PARP antibody (Cell signaling, Cat#: 9547) and counterstained with Hoechst33342 (Invitrogen, Cat#: H3570) to mark all nuclei. Fluorescence images are taken on a Cellomics™ microscope system (Thermo Scientific, Pittsburgh, USA) with the Hoechst stain in the blue channel and the cleaved PARP antibody stain in the green channel. The percentage of cleaved PARP positive cells is determined by calculating the ratio between nuclei with a cleaved PARP antibody staining above a certain threshold and all (Hoechst positive) nuclei. The efficacy of caspase-3 inhibition is determined by calculating the ratio between cleaved PARP positive cells after staurosporine incubation together with compounds and staurosporine incubation without compounds.

Setting [2] is: 30-minute incubation at 37° C., approximations of the average values, read-out: Caspase enzymatic activity, IC50 (uM) Caspase 3.
The mark [3] stands for this setting: 4 h, read-out: % inhibition of PARP cleavage at 50 uM compound, Hela cells, staurosporine 4 hours, 50 uM compound.
Setting [4] is: Hela cells, 50 uM, read-out: % of inhibition with compound relative to DEVDFMK.

Sequence of Caspase-1 (P29466 120-404): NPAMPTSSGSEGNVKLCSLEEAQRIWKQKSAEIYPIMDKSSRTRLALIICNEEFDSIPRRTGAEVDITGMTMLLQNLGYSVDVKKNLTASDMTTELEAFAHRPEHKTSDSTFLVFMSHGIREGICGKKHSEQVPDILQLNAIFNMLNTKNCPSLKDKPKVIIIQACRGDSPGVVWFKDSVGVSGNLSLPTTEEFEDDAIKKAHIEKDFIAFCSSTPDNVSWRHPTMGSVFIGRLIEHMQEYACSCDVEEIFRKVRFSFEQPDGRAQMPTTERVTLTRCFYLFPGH
Sequence of Caspase-9 (P55211 whole entry): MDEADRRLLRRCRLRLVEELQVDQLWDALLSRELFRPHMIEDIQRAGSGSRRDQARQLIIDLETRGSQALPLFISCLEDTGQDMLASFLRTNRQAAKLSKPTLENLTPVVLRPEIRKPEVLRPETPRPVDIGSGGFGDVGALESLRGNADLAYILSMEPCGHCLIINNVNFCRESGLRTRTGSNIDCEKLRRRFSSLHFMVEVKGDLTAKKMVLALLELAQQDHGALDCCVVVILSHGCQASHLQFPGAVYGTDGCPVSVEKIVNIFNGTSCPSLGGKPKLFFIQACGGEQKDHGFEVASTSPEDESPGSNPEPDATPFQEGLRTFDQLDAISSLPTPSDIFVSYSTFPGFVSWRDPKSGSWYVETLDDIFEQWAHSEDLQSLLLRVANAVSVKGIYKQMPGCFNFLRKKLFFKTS
Sequence of Caspase-7 (P55210 whole entry): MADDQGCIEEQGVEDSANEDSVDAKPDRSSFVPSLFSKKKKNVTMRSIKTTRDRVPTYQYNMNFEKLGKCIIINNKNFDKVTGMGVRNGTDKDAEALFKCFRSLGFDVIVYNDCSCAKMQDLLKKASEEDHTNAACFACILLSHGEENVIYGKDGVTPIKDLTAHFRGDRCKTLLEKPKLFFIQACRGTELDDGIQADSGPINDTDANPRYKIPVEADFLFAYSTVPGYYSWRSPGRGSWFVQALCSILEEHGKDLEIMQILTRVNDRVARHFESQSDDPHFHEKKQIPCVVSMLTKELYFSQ
Sequence of Caspase-3 (P42574 29-277): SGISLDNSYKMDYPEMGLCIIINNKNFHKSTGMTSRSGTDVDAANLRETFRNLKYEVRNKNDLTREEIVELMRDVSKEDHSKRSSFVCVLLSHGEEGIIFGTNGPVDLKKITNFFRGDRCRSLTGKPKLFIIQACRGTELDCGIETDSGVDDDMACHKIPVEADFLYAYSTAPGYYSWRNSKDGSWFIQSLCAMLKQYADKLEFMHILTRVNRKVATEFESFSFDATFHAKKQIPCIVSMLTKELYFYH
Sequence of Caspase-5 (P51878 137-434): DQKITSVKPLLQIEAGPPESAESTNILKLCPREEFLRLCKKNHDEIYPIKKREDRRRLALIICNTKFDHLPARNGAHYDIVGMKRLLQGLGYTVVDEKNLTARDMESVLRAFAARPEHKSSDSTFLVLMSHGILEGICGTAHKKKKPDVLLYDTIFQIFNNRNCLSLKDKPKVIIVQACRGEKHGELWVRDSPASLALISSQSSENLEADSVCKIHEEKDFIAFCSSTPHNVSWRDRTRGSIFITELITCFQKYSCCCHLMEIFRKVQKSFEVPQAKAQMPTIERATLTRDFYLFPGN
Protocol for Caspase-1: (§1) The level of inhibition of caspase-1, -3, -5, -7, -9 activity was determined by comparison of the relative fluorescence intensity in samples with or without the compound.
Protocol for Caspase-3: as §1
Protocol for Caspase-5: as §1
Protocol for Caspase-7: as §1
Protocol for Caspase-9: as §1

`CC(C)[C@H](NC(=O)[C@@H](NC(=O)[C@H](CC(=O)O)NC(=O)OCc1ccccc1)c1ccccc1)C(=O)N[C@H](/C=C/S(=O)(=O)c1ccccc1)CC(=O)O` [Compound 69, Z-Asp-Phg-Val-Asp-phenyl Vinylsulfone]: the IC50 on Caspase-7 is 1.8 µM; at Caspase-5 it was above 10 µM; at Caspase-1, above 3.33 µM; with Glo3/7, 1.4 µM; at Caspase-3 (setting [2]) it was 0.1 µM; on Caspase-9, above 3.33 µM. For the same compound, the values for the inhibition at 50 µM in experiment [1] (setting [3]) and in experiment [1] (setting [4]) were 20% and 35%, respectively.

As for `CC(C)[C@H](NC(=O)[C@H](Cc1ccc(O)cc1)NC(=O)[C@H](CC(=O)O)NC(=O)OCc1ccccc1)C(=O)N[C@H](/C=C/S(C)(=O)=O)CC(=O)O` [Compound 76, Z-Asp-Tyr-Val-Aspmethyl vinyl sulfone], the IC50 on Caspase-7 is 0.7 µM; on Caspase-5 it was above 3.33 µM; on Caspase-1, above 3.33 µM; with Glo3/7, 0.04 µM; at Caspase-3 (setting [2]), 0.03 µM; at Caspase-9 it was above 3.33 µM. In addition, the inhibition at 50 µM in experiment [1] (setting [3]) is above 50%.

Consider `Cc1ccc(S(=O)(=O)N[C@@H](Cc2ccc3ccccc3n2)C(=O)N[C@H](C(=O)N[C@H](/C=C(\Cl)S(C)(=O)=O)CC(=O)O)C(C)C)cc1` [Compound 50], for which the IC50 on Caspase-7 was above 3.33 µM; at Caspase-5, above 3.33 µM; at Caspase-1, above 3.33 µM; with Glo3/7, 40 µM; on Caspase-3 (setting [2]), above 3.33 µM; at Caspase-9, above 3.33 µM. Further, the inhibition at 50 µM in experiment [1] (setting [3]) and in experiment [1] (setting [4]) was 0% each time.

For the compound `CC(C)(C)OC(=O)C[C@H](N)/C=C/S(=O)(=O)c1ccccc1` [Compound 37, Asp-vinyl Phenyl Sulfone Salt Form], the IC50 at Caspase-7 was above 3.33 µM; on Caspase-5, above 3.33 µM; at Caspase-1, above 3.33 µM; in the experiment with Glo3/7 it was above 50 µM; on Caspase-3 (setting [2]), above 2 µM; on Caspase-9, above 3.33 µM. The inhibition at 50 µM was determined as 20% in experiment [1] (setting [3]) and 35% in experiment [1] (setting [4]).

In the case of `CC(C)[C@H](NC(=O)[C@H](Cc1ccc2ccccc2n1)NC(=O)[C@H](CC(=O)O)NC(=O)OCc1ccccc1)C(=O)N[C@H](/C=C/S(C)(=O)=O)CC(=O)O` [Compound 55, Z-Asp-Ala(2′-quinolyl)-Val-Aspmethyl vinyl sulfone], the IC50 on Caspase-7 was 1.4 µM; at Caspase-5, above 10 µM; on Caspase-1, above 10 µM; in the experiment on Glo3/7, 0.1 µM; on Caspase-9, above 3.33 µM. Further, the “inhibitory activity for caspase-5” value at Caspase-5 is “No significant inhibitory activity”. For the same compound, the “inhibitory activity for caspase-1” value at Caspase-1 is “No significant inhibitory activity”. The “inhibitory activity for caspase-9” value at Caspase-9 was “No significant inhibitory activity”. The “effectivity in inhibiting PARP cleavage” value in experiment [1] (Hela cells) was “showing effectivity especially relative to DEVD-fmk”.

On to `CC(C)[C@H](NC(=O)[C@H](Cc1ccc2ccccc2n1)NC(=O)[C@H](CC(=O)O)NC(=O)OCc1ccccc1)C(=O)N[C@H](/C=C(\Cl)S(C)(=O)=O)CC(=O)O` [Compound 48, Z-Asp-Ala(2′-quinolyl)-Val-Asp-achlorovinyl methylsulfone], for which the IC50 on Caspase-7 was 0.4 µM; at Caspase-5 it was above 3.33 µM; on Caspase-1 it was above 3.33 µM; in the experiment with Glo3/7, 0.1 µM; on Caspase-3 (setting [2]) it was 0.01 µM; at Caspase-3 (read-out: IC50 caspase-3) it was 0.008 to 0.03 µM. Also, the IC50 on Caspase-9 amounted to 1.2 µM. Moreover, in experiment [1] (Hela cells), the “effectivity in inhibiting PARP cleavage” value is “showing effectivity especially relative to DEVD-fmk”.

Consider `CC(C)(C)OC(=O)C[C@@H](/C=C/S(=O)(=O)c1ccccc1)NC(=O)OC(C)(C)C` [Compound 36, Boc-Asp(O-tBu)VSphenyl], for which the IC50 at Caspase-7 is above 3.33 µM; at Caspase-5, above 3.33 µM; at Caspase-1, above 3.33 µM; with Glo3/7, above 50 µM; at Caspase-3 (setting [2]), above 2 µM; on Caspase-9, above 3.33 µM.

As for `CC(C)[C@H](NC(=O)[C@H](Cc1ccc(O)cc1)NC(=O)OCc1ccccc1)C(=O)N[C@@H](C)C(=O)N[C@H](/C=C/S(=O)(=O)c1ccccc1)CC(=O)O` [Compound 96, z-Tyr-Val-Ala-AspVS phenyl], the IC50 is above 10 µM at Caspase-7; above 3.33 µM on Caspase-5; 1.3 µM at Caspase-1; above 50 µM with Glo3/7; above 10 µM on Caspase-3 (setting [2]); above 10 µM on Caspase-9. The inhibition at 50 µM in experiment [1] (setting [3]) came out at 1%; in experiment [1] (setting [4]) it was 2%.

As to `CC(C)[C@H](NC(=O)[C@H](Cc1ccccn1)NC(=O)[C@H](CC(=O)O)NC(=O)OCc1ccccc1)C(=O)N[C@H](/C=C/S(=O)(=O)c1ccccc1)CC(=O)O` [Compound 85], the IC50 on Caspase-7 is 1 µM; on Caspase-5, above 3.33 µM; on Caspase-1 it was above 3.33 µM; in the experiment with Glo3/7, 0.3 µM; on Caspase-3 (setting [2]), 0.03 µM; on Caspase-9, above 3.33 µM. In experiment [1] (setting [4]), the inhibition at 50 µM came to 45%.

As for `CC(C)[C@H](NC(=O)C(Cc1ccc2ccccc2n1)NC(=O)[C@H](CC(=O)O)NC(=O)OCc1ccccc1)C(=O)N[C@H](/C=C/S(=O)(=O)c1ccccc1)CC(=O)O` (some centres unmarked) [Compound 70, Z-Asp-(D,L Ala(2′-quinolyl))-Val-Aspphenyl Vinylsulfone], the IC50 at Caspase-7 was above 10 µM; at Caspase-5 it was above 10 µM; on Caspase-1, above 3.33 µM; in the experiment with Glo3/7, 20 µM; on Caspase-3 (setting [2]), 0.3 µM; on Caspase-9, above 10 µM.

For `CC(C)[C@H](NC(=O)[C@@H](NC(=O)[C@H](CC(=O)OC(C)(C)C)NC(=O)OCc1ccccc1)c1ccccc1)C(=O)O` [Compound 16, Z-Asp(β-tert-butyl)-Phg-Val-OH] (Cbz-Asp(OtBu)-[Phg]-Val-OH), the half-maximal inhibitory concentration (IC50) on Caspase-7 is above 3.33 µM; at Caspase-5 it was above 3.33 µM; at Caspase-1 it was above 3.33 µM; in the experiment on Glo3/7 it was above 50 µM; at Caspase-3 (setting [2]) it was above 2 µM; at Caspase-9, above 3.33 µM. For the same compound, at Caspase-3, the “activity against caspase-3” value is “devoid of any activity”. For the same compound, the inhibition at 50 µM in experiment [1] (setting [3]) amounted to 13%; in experiment [1] (setting [4]), 23%.

In the case of `CC(C)[C@H](NC(=O)C(Cc1ccc2ccccc2n1)NC(=O)[C@H](CC(=O)O)NC(=O)OCc1ccccc1)C(=O)N[C@H](/C=C/S(C)(=O)=O)CC(=O)O` (some centres unmarked) [Compound 71, Z-Asp-(D,L Ala(2′-quinolyl))-Val-Aspmethyl Vinylsulfone], the IC50 at Caspase-7 is 8.9 µM; at Caspase-5, above 10 µM; at Caspase-1, above 10 µM; with Glo3/7, 0.3 µM; on Caspase-9 it was above 10 µM. For the same compound, the inhibition at 50 µM was found to be 20% in experiment [1] (setting [3]) and 35% in experiment [1] (setting [4]).

On to `CC(C)[C@H](NC(=O)[C@H](Cc1ccc2ccccc2n1)NC(=O)[C@H](CC(=O)O)NC(=O)OCc1ccccc1)C(=O)N[C@H](/C=C/S(=O)(=O)c1ccccc1)CC(=O)O` [Compound 63, Z-Asp-Ala(2′-quinolyl)-Val-Aspphenyl vinyl sulfone], for which the IC50 on Caspase-7 is 1.8 µM; at Caspase-5, above 3.33 µM; on Caspase-1, above 3.33 µM; in the experiment with Glo3/7 it was 0.9 µM; on Caspase-3 (setting [2]), 0.04 µM; at Caspase-9, above 3.33 µM. The “inhibitory activity for caspase-5” value on Caspase-5 is “No significant inhibitory activity”. Moreover, at Caspase-1, the “inhibitory activity for caspase-1” value was “No significant inhibitory activity”. In addition, the “selectivity of Caspase-3 over Caspase-7 based on IC50 values” at Caspase-3 (IC50 caspase-7 versus caspase-3) is around 50 fold. Moreover, the “inhibitory activity for caspase-9” value on Caspase-9 is listed as “No significant inhibitory activity”.
